The molecules below were run against S. pneumoniae Topoisomerase IV ATPase (ParE) (Streptococcus pneumoniae serotype 4, UniProt Q59961) (assay: S. pneumoniae Topoisomerase IV ATPase inhibition). Settings: values marked * are an average of two or more data points, read-out: % Inh (13 μM) of S. pneumoniae Topoisomerase IV ATPase.
Format: biochemical
In short: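 ParE ATPase (1.25 nM) run with 160 μM ATP and 5 μg/ml sheared salmon sperm DNA in Tris pH 8.0, Mg2+, glycerol, DTT, Brij-35. Phosphate released read by malachite green/molybdate absorbance at 650 nm. IC50 from 10 compound concentrations; DMSO (2%) as 0% and EDTA (20 μM) as 100% inhibition.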

S. pneumoniae Topoisomerase IV ATPase (ParE), sequence (Q59961 whole entry): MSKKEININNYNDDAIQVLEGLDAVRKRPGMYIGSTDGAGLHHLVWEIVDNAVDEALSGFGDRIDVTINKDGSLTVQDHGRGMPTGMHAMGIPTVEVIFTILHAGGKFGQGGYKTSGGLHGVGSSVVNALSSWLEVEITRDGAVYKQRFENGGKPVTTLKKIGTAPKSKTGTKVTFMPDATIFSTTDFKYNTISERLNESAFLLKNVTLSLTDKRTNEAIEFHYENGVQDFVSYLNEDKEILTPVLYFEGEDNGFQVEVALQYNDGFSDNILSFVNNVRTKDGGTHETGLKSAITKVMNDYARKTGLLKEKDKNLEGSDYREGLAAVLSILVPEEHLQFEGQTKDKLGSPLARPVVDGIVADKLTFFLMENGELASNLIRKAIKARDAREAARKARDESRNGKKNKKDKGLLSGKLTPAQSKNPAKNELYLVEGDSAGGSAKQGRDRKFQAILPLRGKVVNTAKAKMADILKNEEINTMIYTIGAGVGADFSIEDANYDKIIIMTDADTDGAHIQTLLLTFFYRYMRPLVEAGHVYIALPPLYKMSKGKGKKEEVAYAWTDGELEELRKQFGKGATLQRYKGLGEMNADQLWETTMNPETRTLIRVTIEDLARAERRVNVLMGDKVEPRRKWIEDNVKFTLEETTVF

Question: How did the inhibition at 13 µM turn out when Cc1ccc(F)c(Nc2ncc(-c3cncc(C(=O)O)c3)c(-n3nc(C(F)(F)F)cc3C)n2)c1 [Example 773, 5-{2-[(2-fluoro-5-methylphenyl)-amino]-4-[5-methyl-3-(trifluoromethyl)-1H-pyrazol-1-yl]pyrimidin-5-yl}pyridine-3-carboxylic acid] was run?
Answer: 55%

Question: Which inhibition at 13 µM does the source give for O=C(O)c1cn(CCN2CCOCC2)c2ccc(-c3cnc(Nc4ccc(F)c(Cl)c4)nc3-n3ccc(C(F)(F)F)n3)cc2c1=O [Example 1069, 6-(2-(3-Chloro-4-fluorophenylamino)-4-(3-(trifluoromethyl)-1H-pyrazol-1-yl)pyrimidin-5-yl)-1-(2-morpholinoethyl)-4-oxo-1,4-dihydroquinoline-3-carboxylic acid] here?
Answer: 100%

Question: Which inhibition at 13 µM does the source give for CN(C)CCCNc1nc(Nc2ccc(F)c(Cl)c2)ncc1-c1cncc(-c2nnn[nH]2)c1 [Example 938, 5-(5-(1H-tetrazol-5-yl)pyridin-3-yl)-N2-(3-chloro-4-fluorophenyl)-N4-(3-(dimethylamino)propyl)pyrimidin-2,4-diamine] here?
Answer: 91%

Question: Which inhibition at 13 µM does the source give for NC(=O)c1cncc(-c2cnc(Nc3ccc(F)c(Cl)c3)nc2-n2cc(-c3ccccn3)cn2)c1 [Example 542] here?
Answer: 85%

Question: Which inhibition at 13 µM does the source give for COc1cc(C)cc(Nc2ncc(-c3cc(C(=O)NS(C)(=O)=O)c(=O)n(C)c3)c(-n3nc(C(F)(F)F)cc3C)n2)c1 [Example 1174, 5-{2-[(3-methoxy-5-methylphenyl)amino]-4-[5-methyl-3-(trifluoromethyl)-1H-pyrazol-1-yl]pyrimidin-5-yl}-1-methyl-N-(methylsulfonyl)-2-oxo-1,2-dihydropyridine-3-carboxamide] here?
Answer: 100%

Question: How did the inhibition at 13 µM turn out when CN(C)CCCNc1nc(Nc2cc(C(F)(F)F)cc(C(F)(F)F)c2)ncc1-c1ccc(C(=O)O)s1 [Example 341, 5-(2-(3,5-bis(trifluoromethyl)phenylamino)-4-(3-(dimethylamino)propylamino)pyrimidin-5-yl) thiophene-2-carboxylic acid] was run?
Answer: 87.2%

Question: How did the inhibition at 13 µM turn out when CCOC(=O)c1sc(-c2cnc(Nc3ccc(F)c(Cl)c3)nc2NCCCOC)nc1-c1ccn(C)n1 [Example 508, ethyl 2-{2-[(3-chloro-4-fluorophenyl)amino]-4-[(3-methoxypropyl)amino]pyrimidin-5-yl}-4-(1-methyl-1H-pyrazol-3-yl)-1,3-thiazole-5-carboxylate] was run?
Answer: 0%

Question: With CCS(=O)(=O)NC(=O)c1cc(-c2cnc(Nc3ccc(F)c(Cl)c3)nc2-n2ccc(C(F)(F)F)n2)cnc1OC [Example 1016, 5-(2-(3-Chloro-4-fluorophenylamino)-4-(3-(trifluoromethyl)-1H-pyrazol-1-yl)pyrimidin-5-yl)-N-(ethylsulfonyl)-2-methoxynicotinamide] as the molecule, how does the inhibition at 13 µM read?
Answer: 94%

Question: How did the inhibition at 13 µM turn out when COc1ncc(-c2cnc(Nc3ccc(F)c(Cl)c3)nc2-n2nc(C(F)(F)F)cc2C)cc1C(N)=O [Example 1105, 5-(2-(3-chloro-4-fluorophenylamino)-4-(5-methyl-3-(trifluoromethyl)-1H-pyrazol-1-yl)pyrimidin-5-yl)-2-methoxynicotinamide] was run?
Answer: 82%

Question: CONC(=O)c1cncc(-c2cnc(Nc3ccc(F)c(Cl)c3)nc2NCCc2ccncc2)c1 [Example 477, 5-(2-[(3-chloro-4-fluorophenyl)amino]-4-{[2-(pyridin-4-yl)ethyl]amino}pyrimidin-5-yl)-N-methoxypyridine-3-carboxamide] was tested. Which inhibition at 13 µM did it give?
Answer: 100%

Question: With COc1cc(Cl)c(C)cc1Nc1ncc(-c2cccc(/C=C/C(=O)O)c2)c(NCCCN(C)C)n1 [Example 911, (E)-3-(3-(2-(4-chloro-2-methoxy-5-methylphenylamino)-4-(3-(dimethylamino)propylamino)pyrimidin-5-yl)phenyl)acrylic acid] as the molecule, how does the inhibition at 13 µM read?
Answer: 58%

Question: For COCCn1cc(-c2cnc(Nc3cc(OC)cc(OC)c3)nc2-n2nc(C(F)(F)F)cc2C)cc(C(=O)NS(C)(=O)=O)c1=O [Example 1161, 5-(2-(3,5-dimethoxyphenylamino)-4-(5-methyl-3-(trifluoromethyl)-1H-pyrazol-1-yl)pyrimidin-5-yl)-1-(2-methoxyethyl)-N-(methylsulfonyl)-2-oxo-1,2-dihydropyridine-3-carboxamide], which inhibition at 13 µM is on record?
Answer: 81%

Question: How did the inhibition at 13 µM turn out when Cc1cc(C(F)(F)F)nn1-c1nc(Nc2cccc(S(C)(=O)=O)c2)ncc1-c1cccc(/C=C/C(=O)O)c1 [Example 624, (2E)-3-[3-(2-{[3-(methylsulfonyl)phenyl]amino}-4-[5-methyl-3-(trifluoromethyl)-1H-pyrazol-1-yl]pyrimidin-5-yl)phenyl]prop-2-enoic acid] was run?
Answer: 89%

Question: With COc1cc(Nc2ncc(-c3cnc(OC)c(C(=O)NCCS(C)(=O)=O)c3)c(-n3ccc(C(F)(F)F)n3)n2)cc(OC)c1 [Example 813, 5-{2-[(3,5-dimethoxyphenyl)amino]-4-[3-(trifluoromethyl)-1H-pyrazol-1-yl]pyrimidin-5-yl}-2-methoxy-N-[2-(methylsulfonyl)ethyl]pyridine-3-carboxamide] as the molecule, how does the inhibition at 13 µM read?
Answer: 100%

Question: Which inhibition at 13 µM does the source give for O=C(O)c1cncc(-c2cnc(Nc3ccc(F)c(Cl)c3)nc2-n2nnc3ccccc32)c1 [Example 318, 5-{4-(1H-benzotriazol-1-yl)-2-[(3-chloro-4-fluorophenyl)amino]pyrimidin-5-yl}pyridine-3-carboxylic acid] here?
Answer: 92.3%

Question: O=C(O)c1cncc(-c2cnc(Nc3ccc(F)c(Cl)c3)nc2N[C@H]2CC[C@H](O)CC2)c1 [Example 255, 5-[2-[(3-chloro-4-fluorophenyl)amino]-4-[(4-hydroxycyclohexyl)-amino]pyrimidin-5-yl]pyridine-3-carboxylic acid] was tested. Which inhibition at 13 µM did it give?
Answer: 72.8%

Question: How did the inhibition at 13 µM turn out when O=C(O)/C=C/c1cccc(-c2cnc(Nc3ccc(F)c(Cl)c3)nc2-n2ccc(C3CC3)n2)c1 [Example 875, (E)-3-(3-(2-(3-chloro-4-fluorophenylamino)-4-(3-cyclopropyl-1H-pyrazol-1-yl)pyrimidin-5-yl)phenyl)acrylic acid] was run?
Answer: 98%

Question: How did the inhibition at 13 µM turn out when COCCCNc1nc(Nc2ccc(F)c(Cl)c2)ncc1-c1nc(-c2cccnc2)cs1 [Example 499, N^2-(3-chloro-4-fluorophenyl)-N^4-(3-methoxypropyl)-5-[4-(pyridin-3-yl)-1,3-thiazol-2-yl]pyrimidine-2,4-diamine] was run?
Answer: 34%

Question: How did the inhibition at 13 µM turn out when COc1cc(-c2cnc(Nc3ccc(F)c(Cl)c3)nc2NCCCN(C)C)cc(OC)n1 [Example 8, N^2-(3-chloro-4-fluorophenyl)-5-(2,6-dimethoxypyridin-4-yl)-N^4-(3-(dimethylamino)propyl)-pyrimidin-2,4-diamine] was run?
Answer: 87.6%

Question: How did the inhibition at 13 µM turn out when COCCCNc1nc(Nc2ccc(F)c(Cl)c2)ncc1-c1cncc(C(=O)CC(=O)OC)c1 [Example 1040, Methyl 3-(5-(2-(3-chloro-4-fluorophenylamino)-4-(3-methoxypropylamino)pyrimidin-5-yl)pyridin-3-yl)-3-oxopropanoate] was run?
Answer: 86%

Question: With CCOC(=O)c1cncc(-c2cnc(Nc3ccc(F)c(Cl)c3)nc2NCc2cnn(C)c2)c1 [Example 148, ethyl 5-(2-(3-chloro-4-fluorophenylamino)-4-((1-methyl-1H-pyrazol-4-yl)methylamino)pyrimidin-5-yl)-nicotinate] as the molecule, how does the inhibition at 13 µM read?
Answer: 120%

Question: Which inhibition at 13 µM does the source give for CN1CCN(CCOc2ncc(-c3cnc(Nc4ccc(F)c(Cl)c4)nc3-n3ccc(C(F)(F)F)n3)cc2C(=O)O)CC1 [Example 962, 5-(2-(3-chloro-4-fluorophenylamino)-4-(3-(trifluoromethyl)-1H-pyrazol-1-yl)pyrimidin-5-yl)-2-(2-(4-methylpiperazin-1-yl)ethoxy)nicotinic acid] here?
Answer: 98%

Question: Which inhibition at 13 µM does the source give for CNC(=O)c1cc(-c2cnc(Nc3ccc(F)c(Cl)c3)nc2-n2ccc(C(F)(F)F)n2)cnc1OC [Example 1100, 5-(2-(3-chloro-4-fluorophenylamino)-4-(3-(trifluoromethyl)-1H-pyrazol-1-yl)pyrimidin-5-yl)-2-methoxy-N-methylnicotinamide] here?
Answer: 75%

Question: With COc1cccc(-c2cnc(Nc3ccc(F)c(Cl)c3)nc2-n2ccc(C(F)(F)F)n2)n1 [Example 876, N-(3-chloro-4-fluorophenyl)-5-(6-methoxypyridin-2-yl)-4-(3-(trifluoromethyl)-1H-pyrazol-1-yl)pyrimidin-2-amine] as the molecule, how does the inhibition at 13 µM read?
Answer: 0%

Question: O=C(O)/C=C/c1cccc(-c2cnc(Nc3ccc(F)c(Cl)c3)nc2-n2cc(-c3ccncc3)cn2)c1 [Example 312, (2E)-3-(3-{2-[(3-chloro-4-fluorophenyl)amino]-4-[4-(pyridin-4-yl)-1H-pyrazol-1-yl]pyrimidin-5-yl}phenyl)prop-2-enoic acid] was tested. Which inhibition at 13 µM did it give?
Answer: 101%

Question: Which inhibition at 13 µM does the source give for Cn1cncc1CNc1nc(Nc2ccc(F)c(Cl)c2)ncc1-c1cncc(C(=O)O)c1 [Example 281, 5-(2-(3-chloro-4-fluorophenylamino)-4-((1-methyl-1H-imidazol-5-yl)methylamino)pyrimidin-5-yl)nicotinic acid] here?
Answer: 95.8%

Question: Cc1ccc(S(=O)(=O)n2ccc3cc(Nc4ncc(-c5cncc(C(=O)O)c5)c(-n5nc(C(F)(F)F)cc5C)n4)ccc32)cc1 [Example 667, 5-{2-({1-[(4-methylphenyl)sulfonyl]-1H-indol-5-yl}amino)-4-[5-methyl-3-(trifluoromethyl)-1H-pyrazol-1-yl]pyrimidin-5-yl}pyridine-3-carboxylic acid] was tested. Which inhibition at 13 µM did it give?
Answer: 56%

Question: With CCOC(=O)c1cncc(-c2cnc(Nc3ccc(F)c(Cl)c3)nc2NCc2ccncc2)c1 [Example 97, 5-{2-(3-Chloro-4-fluoro-phenylamino)-4-[(pyridin-4-ylmethyl)-amino]-pyrimidin-5-yl}-nicotinic acid ethyl ester] as the molecule, how does the inhibition at 13 µM read?
Answer: 75.9%

Question: CCOC(=O)c1cncc(-c2cnc(Nc3ccc(F)c(Cl)c3)nc2N2CCC(C(=O)NC)CC2)c1 [Example 120, ethyl 5-[2-[(3-chloro-4-fluorophenyl)amino]-4-[4-(methylcarbamoyl)piper-idin-1-yl]pyrimidin-5-yl]pyridine-3-carboxylate] was tested. Which inhibition at 13 µM did it give?
Answer: 73.9%
